The values below come from PubChem BioAssay AID248 (DTP/NCI, 2004).

The experiment relates to L1210 leukemia ip in BDF1 mice, survival T/C. The experiment in a line: NCI In Vivo Anticancer Drug Screen. Data for tumor model L1210 Leukemia (intraperitoneal) in B6D2F1 (BDF1) mice. The settings on record: endpoint: mean survival time, higher = longer survival. The essentials: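 Transplanted-tumor mice were given test agent; controls received vehicle only. Survival readings from the two groups were divided (treated over control).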

The mark [1] stands for this setting: dose: 300.0 mg/kg/injection, schedule: Q01DX001 (ip), vehicle: saline.
[2] abbreviates: dose: 200.0 mg/kg/injection, schedule: Q04DX003 (ip), vehicle: saline.
Where [3] appears, read: dose: 400.0 mg/kg/injection, schedule: Q04DX003 (ip), vehicle: saline.
Setting [4] is: dose: 100.0 mg/kg/injection, schedule: Q01DX001 (ip), vehicle: carboxymethylcellulose (CMC).
The mark [5] stands for this setting: dose: 200.0 mg/kg/injection, schedule: Q01DX001 (ip), vehicle: carboxymethylcellulose (CMC).
The mark [6] stands for this setting: dose: 400.0 mg/kg/injection, schedule: Q01DX001 (ip), vehicle: carboxymethylcellulose (CMC).
[7] abbreviates: dose: 100.0 mg/kg/injection, schedule: Q01DX009 (ip), vehicle: saline with Tween-80.
[8] abbreviates: dose: 200.0 mg/kg/injection, schedule: Q01DX009 (ip), vehicle: saline with Tween-80.
Setting [9] is: dose: 400.0 mg/kg/injection, schedule: Q01DX001 (ip), vehicle: saline.
Where [10] appears, read: dose: 100.0 mg/kg/injection, schedule: Q04DX003 (ip), vehicle: Klucel (hydroxypropylcellulose) (HPC).
Setting [11] is: dose: 200.0 mg/kg/injection, schedule: Q04DX003 (ip), vehicle: Klucel (hydroxypropylcellulose) (HPC).

Inconclusive results and toxic doses are left out.

Regarding `COc1cc2c(cc1OC)C1Cc3cc(OC)c(OC)cc3C(C2)N1`, the T/C is 97 % of control (dose: 75.0 mg/kg/injection, schedule: Q01DX001 (ip), vehicle: saline); 97 % of control (dose: 150.0 mg/kg/injection, schedule: Q01DX001 (ip), vehicle: saline); 97 % of control under setting [1].

With `CC(=O)C(=O)N1Cc2cc3ccccc3nc2C1`, the T/C reads like this: (dose: 100.0 mg/kg/injection, schedule: Q04DX003 (ip), vehicle: saline) 115 % of control; under setting [2], 102 % of control; under setting [3], 102 % of control.

Turning to `CCOC(=O)c1ccc2c3c([nH]c2c1C)-c1ccccc1CC3`, the T/C by setting is: (dose: 50.0 mg/kg/injection, schedule: Q01DX001 (ip), vehicle: carboxymethylcellulose (CMC)) 95 % of control; under setting [4], 97 % of control; under setting [5], 106 % of control; under setting [6], 103 % of control.

Turning to `O=C(Nc1ccccc1C(=O)OCc1ccc([N+](=O)[O-])cc1)OCc1ccccc1`, the T/C (dose: 75.0 mg/kg/injection, schedule: Q04DX003 (ip), vehicle: saline) was 98 % of control; the T/C (dose: 150.0 mg/kg/injection, schedule: Q04DX003 (ip), vehicle: saline) is 98 % of control; the T/C (dose: 300.0 mg/kg/injection, schedule: Q04DX003 (ip), vehicle: saline) was 104 % of control.

As for `O=c1[nH]cnc2c1ncn2C1CCC(CO)C1` (configuration not stated), the T/C runs as follows: under setting [4], 100 % of control; (dose: 177.0 mg/kg/injection, schedule: Q01DX001 (ip), vehicle: carboxymethylcellulose (CMC)) 98 % of control; under setting [5], 96 % of control; (dose: 266.0 mg/kg/injection, schedule: Q01DX001 (ip), vehicle: carboxymethylcellulose (CMC)) 98 % of control; (dose: 600.0 mg/kg/injection, schedule: Q01DX001 (ip), vehicle: carboxymethylcellulose (CMC)) 100 % of control.

As for `CC(CCc1ccccn1)C(=O)c1ccccc1` (configuration not stated), the T/C was 93 % of control (dose: 222.0 mg/kg/injection, schedule: Q01DX Z (ip), vehicle: methylcellulose (MC)); 98 % of control (dose: 333.0 mg/kg/injection, schedule: Q01DX Z (ip), vehicle: methylcellulose (MC)); 94 % of control (dose: 500.0 mg/kg/injection, schedule: Q01DX Z (ip), vehicle: methylcellulose (MC)).

As to `C=C1C(=O)OC2C1CCC(C)C1CC(O)C(O)C12C` (configuration not stated), the T/C was 96 % of control (dose: 12.5 mg/kg/injection, schedule: Q04DX003 (ip), vehicle: Klucel (hydroxypropylcellulose) (HPC)); 101 % of control (dose: 25.0 mg/kg/injection, schedule: Q04DX003 (ip), vehicle: Klucel (hydroxypropylcellulose) (HPC)); 101 % of control (dose: 50.0 mg/kg/injection, schedule: Q04DX003 (ip), vehicle: Klucel (hydroxypropylcellulose) (HPC)).

`NC(=O)C(N)Cc1ccc(OCc2ccccc2)c(OCc2ccccc2)c1` (configuration not stated): the T/C was 92 % of control (dose: 100.0 mg/kg/injection, schedule: Q01DX001 (ip), vehicle: saline with Tween-80); 101 % of control under setting [7]; 94 % of control (dose: 200.0 mg/kg/injection, schedule: Q01DX001 (ip), vehicle: saline with Tween-80); 95 % of control under setting [8]; 86 % of control (dose: 400.0 mg/kg/injection, schedule: Q01DX001 (ip), vehicle: saline with Tween-80).

On to `CC(C)(C)NC1CCCC1Cl` (configuration not stated), for which the T/C was 106 % of control under setting [7] and 102 % of control under setting [8].

Take `CSc1cc(N)nc2nc[nH]c12`: the T/C is, setting by setting: (dose: 100.0 mg/kg/injection, schedule: Q01DX001 (ip), vehicle: saline) 105 % of control; (dose: 200.0 mg/kg/injection, schedule: Q01DX001 (ip), vehicle: saline) 98 % of control; under setting [9], 98 % of control.

For `NC(Cc1ccccc1)C(=O)O` (configuration not stated), the T/C is 102 % of control (dose: 75.0 mg/kg/injection, schedule: Q01DX001 (ip), vehicle: saline with Tween-80); 93 % of control under setting [4]; 102 % of control under setting [10]; 102 % of control (dose: 150.0 mg/kg/injection, schedule: Q01DX001 (ip), vehicle: saline with Tween-80); 96 % of control under setting [5]; 86 % of control under setting [11]. Also, the T/C is, setting by setting: (dose: 300.0 mg/kg/injection, schedule: Q01DX001 (ip), vehicle: saline with Tween-80) 98 % of control; under setting [6], 93 % of control.

In the case of `c1cc[c]([Pb]([c]2ccccc2)([c]2ccccc2)[n]2c3ccccc3c3ccccc32)cc1`, the T/C was 99 % of control (dose: 1.56 mg/kg/injection, schedule: Q01DX009 (ip), vehicle: saline with Tween-80); 98 % of control (dose: 3.12 mg/kg/injection, schedule: Q01DX009 (ip), vehicle: saline with Tween-80); 91 % of control (dose: 6.25 mg/kg/injection, schedule: Q01DX009 (ip), vehicle: saline with Tween-80).

Regarding `O=C(c1ccccc1)C1CSC1Br` (configuration not stated), the T/C (dose: 100.0 mg/kg/injection, schedule: Q04DX003 (ip), vehicle: saline with Tween-80) is 102 % of control; the T/C (dose: 200.0 mg/kg/injection, schedule: Q04DX003 (ip), vehicle: saline with Tween-80) was 98 % of control; the T/C (dose: 400.0 mg/kg/injection, schedule: Q04DX003 (ip), vehicle: saline with Tween-80) is 100 % of control.

On to `CC1CCC(C(O)(C(=O)O)C2CCCCC2)CC1C` (configuration not stated), for which the T/C reads like this: (dose: 75.0 mg/kg/injection, schedule: Q01DX001 (ip), vehicle: carboxymethylcellulose (CMC)) 97 % of control; (dose: 150.0 mg/kg/injection, schedule: Q01DX001 (ip), vehicle: carboxymethylcellulose (CMC)) 105 % of control; (dose: 300.0 mg/kg/injection, schedule: Q01DX001 (ip), vehicle: carboxymethylcellulose (CMC)) 100 % of control.

For the compound `CN(C(=S)c1ccc(Cl)cc1)c1ccccc1`, the T/C (dose: 100.0 mg/kg/injection, schedule: Q01DX001 (ip), vehicle: Klucel (hydroxypropylcellulose) (HPC)) was 103 % of control; the T/C under setting [10] was 92 % of control; the T/C (dose: 200.0 mg/kg/injection, schedule: Q01DX001 (ip), vehicle: Klucel (hydroxypropylcellulose) (HPC)) is 98 % of control; the T/C under setting [11] is 102 % of control; the T/C (dose: 400.0 mg/kg/injection, schedule: Q01DX001 (ip), vehicle: Klucel (hydroxypropylcellulose) (HPC)) is 103 % of control; the T/C (dose: 400.0 mg/kg/injection, schedule: Q04DX003 (ip), vehicle: Klucel (hydroxypropylcellulose) (HPC)) was 97 % of control.

On to `CCCC(=O)OCC1OC(n2cnc3c(=S)nc[nH]c32)C(OC(=O)CCC)C1OC(=O)CCC` (configuration not stated), for which the T/C (dose: 3.12 mg/kg/injection, schedule: Q04DX003 (ip), vehicle: saline) was 97 % of control; the T/C (dose: 6.25 mg/kg/injection, schedule: Q01DX009 (ip), vehicle: saline) was 112 % of control; the T/C (dose: 6.25 mg/kg/injection, schedule: Q01DX Z (ip), vehicle: other) was 117 % of control; the T/C (dose: 6.25 mg/kg/injection, schedule: Q04DX003 (ip), vehicle: saline) is 113 % of control; the T/C (dose: 8.36 mg/kg/injection, schedule: Q01DX009 (ip), vehicle: saline with Tween-80) is 122 % of control; the T/C (dose: 8.36 mg/kg/injection, schedule: Q04DX003 (ip), vehicle: saline with Tween-80) is 107 % of control. The T/C (dose: 12.5 mg/kg/injection, schedule: Q01DX009 (ip), vehicle: saline) is 122 % of control; the T/C (dose: 12.5 mg/kg/injection, schedule: Q04DX003 (ip), vehicle: saline with Tween-80) was 114 % of control; the T/C (dose: 12.5 mg/kg/injection, schedule: Q04DX003 (ip), vehicle: saline) is 118 % of control; the T/C (dose: 25.0 mg/kg/injection, schedule: Q01DX Z (ip), vehicle: other) was 153 % of control; the T/C (dose: 25.0 mg/kg/injection, schedule: Q04DX003 (ip), vehicle: saline) was 121 % of control; the T/C (dose: 26.0 mg/kg/injection, schedule: Q01DX001 (ip), vehicle: saline) was 121 % of control. Further, the T/C (dose: 40.0 mg/kg/injection, schedule: Q01DX001 (ip), vehicle: saline) is 121 % of control; the T/C (dose: 50.0 mg/kg/injection, schedule: Q01DX009 (ip), vehicle: saline) is 164 % of control; the T/C (dose: 50.0 mg/kg/injection, schedule: Q01DX Z (ip), vehicle: other) was 89 % of control; the T/C under setting [2] was 123 % of control; the T/C under setting [1] was 151 % of control; the T/C under setting [9] was 121 % of control. Moreover, the T/C is 100 % of control (dose: 400.0 mg/kg/injection, schedule: Q01DX009 (ip), vehicle: saline) and 105 % of control under setting [3].
